{
  "source": "patent EP3964211A1",
  "about": "“A COMPOSITION COMPRISING AN ASCORBYL PHOSPHATE, NIACINAMIDE AND ALLANTOIN FOR TREATING ACNE” (DSM IP Assets B.V., priority 2020, dated 2022)",
  "tested_on": "C. acnes (ATCC reference 11827)",
  "experiment": "Cutibacterium acnes Time-Kill assay",
  "type": "cell-based",
  "description": "Sodium ascorbyl phosphate, niacinamide, allantoin as well as a combination thereof were screened for their potential anti-microbial activities against C. acnes (ATCC reference 11827). The action of ingredients and combinations thereof is assessed through a miniaturized method performed in liquid media in 96 deepwell plates format. The inhibition of the growth of C. acnes is compared to the same strain growth in corresponding optimal media.\nThe different ingredients are mixed in growth medium (final volume 2mL) in deepwell plates (n=3). Analysis controls are prepared and used identically to samples : • A growth control of Cutibacterium acnes in the corresponding culture medium; • A growth control of Cutibacterium acnes with ethanol at 2,5 % (v/v) directly in the culture medium; • A growth control of microorganisms with olive oil at 5 % (v/v) directly in the culture medium; • A control consisting of Salicylic acid at 0.5% directly in the culture medium Then, samples are contaminated with C. acnes, inoculum at final concentration of 3,7 x10^5 cfu/mL, […]\nTo perform the counting, aliquots of the contaminated samples are serially diluted (decimal dilutions) in culture medium in 96-well plates with triphenyltetrazolium and incubated at 37°C ± 2,5°C during 48 h. After 48 h at the optimal growing conditions, the last dilution showing a pink color (triphenyltetrazolium) or turbidity indicates the contamination rate and allow the determination of the corresponding microbial population.",
  "key": {"[1]": {"conditions": "2 h, read-out: Log-step reduction (2h)"}},
  "note": "Read-outs that look alike come from different tables or passages of the source.",
  "data": [
    {"compound": "NC(=O)NC1NC(=O)NC1=O", "note": "(centres unmarked) [Allantoin, 2,5-dioxo-4-imidazolidinyl urea]", "values": [
      {"measurement": "log reduction at 0.5 %", "setting": "0.5 wt.-% in growth medium, 2h, compared to initial log/cfu of 5.6, n=3, read-out: Log-step reduction (2h)", "value": 0.6}
    ]},
    {"compound": "NC(=O)c1cccnc1", "note": "[Niacinamide, pyridine-3-carboxamide]", "values": [
      {"measurement": "log reduction at 3 %", "setting": "[1]", "value": 0.7}
    ]},
    {"compound": "O=C(O)c1ccccc1O", "note": "[Salicylic acid, reference compound]", "values": [
      {"measurement": "log reduction at 0.5 %", "setting": "[1]", "value": 3},
      {"measurement": "log reduction at 0.5 %", "setting": "2.5 h, read-out: log-step reduction of C. acnes", "value": 3}
    ]},
    {"compound": "O=C1O[C@H]([C@@H](O)CO)C(O)=C1OP(=O)(O)O", "note": "[Sodium ascorbyl phosphate, sodium ascorbyl phosphate]", "values": [
      {"measurement": "log reduction at 3 %", "setting": "3 wt.-% in growth medium, 2h, compared to initial log/cfu of 5.6, n=3, read-out: Log-step reduction (2h)", "value": 1.7}
    ]}
  ]
}
